From US9999622B2, “Pyrazolothiazole compound and medicine comprising same” (NIPPON SHINYAKU CO., LTD., priority 2014, dated 2018) come the findings set out here.

Type in all cases: biochemical
The target in assay [1] is T1, JAK1 (Homo sapiens, UniProt P23458).
T1 construct: purchased Carna Biosciences, Inc
Description: JAK tyrosine kinase inhibitory activity in the presence of 1 mM ATP (ELISA), JAK1. The method in brief: (§1)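 Kinase reactions ran on streptavidin-coated plates in 15 mM Tris-HCl pH 7.5, 0.01% Tween-20, 1 mM DTT, 30 °C for 1 h. Enzyme was prediluted to 7.5 nM (JAK1) or 0.75 nM (JAK2, JAK3) before addition. Phosphotyrosine was detected with HRP anti-pTyr antibody and TMB at A450.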
A general note: An ELISA detects its analyte on a solid surface through an enzyme-linked reagent.

The target in assay [2] is T2, JAK3 (Homo sapiens, UniProt P52333).
T2 construct: purchased Carna Biosciences, Inc
T2 sequence (P52333 1-1124): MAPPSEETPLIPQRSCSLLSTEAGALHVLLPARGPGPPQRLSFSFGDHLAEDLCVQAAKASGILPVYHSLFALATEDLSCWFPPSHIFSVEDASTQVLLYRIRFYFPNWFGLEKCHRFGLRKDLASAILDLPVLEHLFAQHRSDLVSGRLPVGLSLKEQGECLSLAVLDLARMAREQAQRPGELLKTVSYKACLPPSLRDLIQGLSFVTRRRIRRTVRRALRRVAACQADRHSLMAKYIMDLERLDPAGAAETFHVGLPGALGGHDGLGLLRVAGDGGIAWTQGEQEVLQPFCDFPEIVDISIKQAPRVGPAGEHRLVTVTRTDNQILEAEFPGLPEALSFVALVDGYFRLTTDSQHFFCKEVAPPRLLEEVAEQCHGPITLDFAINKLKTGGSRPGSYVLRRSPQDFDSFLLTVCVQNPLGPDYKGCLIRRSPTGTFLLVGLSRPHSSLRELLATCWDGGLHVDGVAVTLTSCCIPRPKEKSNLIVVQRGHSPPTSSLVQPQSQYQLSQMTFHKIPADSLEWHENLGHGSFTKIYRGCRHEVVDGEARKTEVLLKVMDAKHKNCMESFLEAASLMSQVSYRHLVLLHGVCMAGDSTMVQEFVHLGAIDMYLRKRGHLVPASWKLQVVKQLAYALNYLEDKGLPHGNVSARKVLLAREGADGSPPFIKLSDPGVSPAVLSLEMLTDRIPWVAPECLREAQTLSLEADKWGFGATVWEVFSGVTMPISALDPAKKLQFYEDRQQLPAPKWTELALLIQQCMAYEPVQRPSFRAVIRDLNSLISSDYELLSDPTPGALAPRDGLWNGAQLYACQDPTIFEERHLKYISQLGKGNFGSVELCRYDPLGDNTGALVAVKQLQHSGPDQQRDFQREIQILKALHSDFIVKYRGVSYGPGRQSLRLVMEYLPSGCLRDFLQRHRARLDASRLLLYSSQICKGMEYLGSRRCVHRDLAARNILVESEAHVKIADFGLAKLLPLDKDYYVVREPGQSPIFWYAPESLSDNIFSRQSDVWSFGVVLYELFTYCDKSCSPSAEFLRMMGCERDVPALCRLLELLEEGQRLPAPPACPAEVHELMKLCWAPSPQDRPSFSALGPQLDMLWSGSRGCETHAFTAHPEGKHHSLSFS
Description: JAK tyrosine kinase inhibitory activity in the presence of 1 mM ATP (ELISA), JAK3. A digest of the protocol: as §1

Assay [3] concerns the target T3, JAK2 (Homo sapiens, UniProt O60674).
T3 construct: purchased Carna Biosciences, Inc
Description: JAK tyrosine kinase inhibitory activity in the presence of 1 mM ATP (ELISA), JAK2. A digest of the protocol: as §1

As a reminder, the IC50 is the concentration that gives 50% inhibition.

T1 sequence (P23458 whole entry): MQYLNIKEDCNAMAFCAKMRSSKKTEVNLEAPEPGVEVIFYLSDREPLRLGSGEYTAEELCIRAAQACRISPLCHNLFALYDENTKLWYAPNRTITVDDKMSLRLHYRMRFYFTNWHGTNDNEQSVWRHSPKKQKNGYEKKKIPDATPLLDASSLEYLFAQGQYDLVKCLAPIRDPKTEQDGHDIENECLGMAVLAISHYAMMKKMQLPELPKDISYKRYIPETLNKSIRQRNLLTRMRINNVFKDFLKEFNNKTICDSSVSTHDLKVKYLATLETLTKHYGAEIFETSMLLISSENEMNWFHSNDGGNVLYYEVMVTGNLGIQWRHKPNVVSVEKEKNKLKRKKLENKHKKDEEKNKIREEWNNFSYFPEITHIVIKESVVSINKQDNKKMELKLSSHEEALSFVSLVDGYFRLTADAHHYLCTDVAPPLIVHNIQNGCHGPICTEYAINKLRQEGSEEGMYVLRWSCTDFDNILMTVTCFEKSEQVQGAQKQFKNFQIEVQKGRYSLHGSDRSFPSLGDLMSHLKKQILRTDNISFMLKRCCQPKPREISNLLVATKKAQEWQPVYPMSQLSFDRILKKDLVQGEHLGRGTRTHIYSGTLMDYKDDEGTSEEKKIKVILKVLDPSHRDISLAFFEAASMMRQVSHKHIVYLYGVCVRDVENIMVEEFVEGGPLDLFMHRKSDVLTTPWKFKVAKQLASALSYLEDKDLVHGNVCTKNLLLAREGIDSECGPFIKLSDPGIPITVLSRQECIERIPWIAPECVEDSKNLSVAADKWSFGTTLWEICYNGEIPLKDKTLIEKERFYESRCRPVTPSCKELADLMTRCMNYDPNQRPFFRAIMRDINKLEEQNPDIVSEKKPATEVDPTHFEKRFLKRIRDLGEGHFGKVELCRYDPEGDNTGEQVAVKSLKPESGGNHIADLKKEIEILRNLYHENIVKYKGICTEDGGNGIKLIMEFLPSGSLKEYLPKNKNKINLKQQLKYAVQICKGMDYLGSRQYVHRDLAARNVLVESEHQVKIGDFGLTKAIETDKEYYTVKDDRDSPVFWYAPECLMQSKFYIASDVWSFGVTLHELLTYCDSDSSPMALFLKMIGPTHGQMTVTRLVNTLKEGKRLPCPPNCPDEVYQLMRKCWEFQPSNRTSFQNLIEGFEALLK
T3 sequence (O60674 whole entry): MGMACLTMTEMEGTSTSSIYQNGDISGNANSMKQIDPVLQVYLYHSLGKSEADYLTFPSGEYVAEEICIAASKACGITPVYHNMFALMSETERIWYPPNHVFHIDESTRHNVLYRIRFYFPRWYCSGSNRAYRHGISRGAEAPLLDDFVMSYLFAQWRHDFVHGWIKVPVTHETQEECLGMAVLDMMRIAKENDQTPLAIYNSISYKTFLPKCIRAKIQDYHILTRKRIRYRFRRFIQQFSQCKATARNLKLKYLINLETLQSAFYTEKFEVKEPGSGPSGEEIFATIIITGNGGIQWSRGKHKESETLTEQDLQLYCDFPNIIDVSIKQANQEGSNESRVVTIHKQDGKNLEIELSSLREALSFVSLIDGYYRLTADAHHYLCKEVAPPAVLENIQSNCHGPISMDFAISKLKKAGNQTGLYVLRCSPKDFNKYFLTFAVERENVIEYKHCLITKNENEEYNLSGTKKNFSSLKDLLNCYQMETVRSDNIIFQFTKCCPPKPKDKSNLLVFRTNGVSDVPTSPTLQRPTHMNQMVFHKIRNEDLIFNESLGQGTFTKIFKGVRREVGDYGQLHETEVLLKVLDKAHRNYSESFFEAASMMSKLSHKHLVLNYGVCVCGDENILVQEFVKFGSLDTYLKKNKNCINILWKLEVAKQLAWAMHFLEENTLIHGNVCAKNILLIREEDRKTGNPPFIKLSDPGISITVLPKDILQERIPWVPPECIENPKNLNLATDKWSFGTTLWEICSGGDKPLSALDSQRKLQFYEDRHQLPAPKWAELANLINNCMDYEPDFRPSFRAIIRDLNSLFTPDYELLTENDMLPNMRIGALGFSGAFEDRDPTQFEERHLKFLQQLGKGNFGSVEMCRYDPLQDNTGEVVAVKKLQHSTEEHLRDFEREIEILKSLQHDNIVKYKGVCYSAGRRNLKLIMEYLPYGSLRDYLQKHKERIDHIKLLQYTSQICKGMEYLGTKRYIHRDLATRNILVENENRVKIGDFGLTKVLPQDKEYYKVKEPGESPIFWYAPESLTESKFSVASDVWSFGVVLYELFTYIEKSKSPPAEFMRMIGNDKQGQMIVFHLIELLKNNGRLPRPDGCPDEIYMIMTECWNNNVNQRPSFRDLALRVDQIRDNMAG

As to `C[C@H](Nc1cc(C(=O)N2CCC(NC(=O)c3ccncc3)CC2)nc(-c2cnn3ccsc23)n1)C1CC1` [Example 187, N-1-[6-[(1S)-1-cyclopropylethyl]amino-2-(pyrazolo[5,1-b][1,3]thiazol-7-yl)pyrimidine-4-carbonyl]piperidin-4-ylpyridine-4-carboxamide], the IC50 in assay [1] amounted to 68 nM; in assay [2], 1800 nM; in assay [3], 2100 nM.

`CC(=O)N1CCC(Nc2cc(C(=O)N3CCC(NC(=O)C4CC4)CC3)nc(-c3cnn4ccsc34)n2)CC1` [Example 188, N-(1-6-[(l-acetylpiperidin-4-yl)amino]-2-(pyrazolo[5,1-b][1,3]thiazol-7-yl)pyrimidine-4-carbonylpiperidin-4-yl)cyclopropanecarboxamide]: the figures for the half-maximal inhibitory concentration (IC50) in assay [1], in assay [2] and in assay [3] were 1300 nM, over 10000 nM and over 10000 nM, respectively.

Take `CS(=O)(=O)N1CCC(Nc2cc(C(=O)N3CCC(NC(=O)C4CC4)CC3)nc(-c3cnn4ccsc34)n2)CC1` [Example 189, N-1-[6-[1-(methanesulfonyl)piperidin-4-yl]amino-2-(pyrazolo[5,1-b][1,3]thiazol-7-yl)pyrimidine-4-carbonyl]piperidin-4-ylcyclopropanecarboxamide]: the results for the half-inhibitory concentration (IC50) in assay [1], in assay [2] and in assay [3] were 1100 nM, over 10000 nM and over 10000 nM, respectively.

Turning to `CCCCC(=O)NC1CCN(C(=O)c2cc(N[C@@H](C)C3CC3)nc(-c3cnn4ccsc34)n2)CC1` [Example 190, N-1-[6-[(1S)-1-cyclopropylethyl]amino-2-(pyrazolo[5,1-b][1,3]thiazol-7-yl)pyrimidine-4-carbonyl]piperidin-4-ylpentanamide], the 50% inhibitory concentration (IC50) was determined as 65 nM in assay [1], 1000 nM in assay [2] and 6600 nM in assay [3].

With `N#CCC(=O)N1CC[C@@H](Nc2cc(C(=O)N3CCC(NC(=O)C4CC4)CC3)nc(-c3cnn4ccsc34)n2)C1` [Example 191, N-1-[6-[(3R)-1-(cyanoacetyl)pyrrolidin-3-yl]amino-2-(pyrazolo[5,1-b][1,3]thiazol-7-yl)pyrimidine-4-carbonyl]piperidin-4-ylcyclopropanecarboxamide], the results for the IC50 in assay [1], in assay [2] and in assay [3] were 52 nM, over 10000 nM and over 10000 nM, respectively.

Consider `COC(=O)NC1CCN(C(=O)c2cc(NCC3CCN(C(=O)OC)CC3)nc(-c3cnn4ccsc34)n2)CC1` [Example 192, Methyl 4-([6-4-[(methoxycarbonyl)amino]piperidine-1-carbonyl-2-(pyrazolo[5,1-b][1,3]thiazol-7-yl)pyrimidin-4-yl]aminomethyl)piperidine-1-carboxylate], for which the IC50 in assay [1] was 690 nM; in assay [2], over 10000 nM; in assay [3], over 10000 nM.

Consider `CC(C)S(=O)(=O)N1CCC(Nc2cc(C(=O)N3CCC(NC(=O)C4CC4)CC3)nc(-c3cnn4ccsc34)n2)CC1` [Example 193, N-1-[6-[1-(propane-2-sulfonyl)piperidin-4-yl]amino-2-(pyrazolo[5,1-b][1,3]thiazol-7-yl)pyrimidine-4-carbonyl]piperidin-4-ylcyclopropanecarboxamide], for which the IC50 in assay [1] is 470 nM; in assay [2], over 10000 nM; in assay [3] it was over 10000 nM.

Turning to `COC(=O)N1CCC(Nc2cc(C(=O)N3CCC(NC(=O)C4CC4)CC3)nc(-c3cnn4ccsc34)n2)CC1` [Example 194, Methyl 4-[6-4-[(cyclopropanecarbonyl)amino]piperidine-1-carbonyl-2-(pyrazolo[5,1-b][1,3]thiazol-7-yl)pyrimidin-4-yl]aminopiperidine-1-carboxylate], the concentration for half-maximal inhibition (IC50) in assay [1] is 260 nM; in assay [2], over 10000 nM; in assay [3], over 10000 nM.

`CCCCCCC(=O)NC1CCN(C(=O)c2cc(N[C@H](C)C(C)(C)C)nc(-c3cnn4ccsc34)n2)CC1` [Example 195, N-1-[6-[(2R)-3,3-dimethylbutan-2-yl]amino-2-(pyrazolo[5,1-b][1,3]thiazol-7-yl)pyrimidine-4-carbonyl]piperidin-4-ylheptanamide]: the results for the concentration for half-maximal inhibition (IC50) in assay [1], in assay [2] and in assay [3] were 310 nM, 4900 nM and 9000 nM, respectively.

As to `C[C@@H](Nc1cc(C(=O)N2CCC(NC(=O)c3ccccc3Cl)CC2)nc(-c2cnn3ccsc23)n1)C(C)(C)C` [Example 196, 2-Chloro-N-1-[6-[(2R)-3,3-dimethylbutan-2-yl]amino-2-(pyrazolo[5,1-b][1,3]thiazol-7-yl)pyrimidine-4-carbonyl]piperidin-4-ylbenzamide], the half-maximal inhibitory concentration (IC50) in assay [1] came to 110 nM; in assay [2], 7300 nM; in assay [3] it was 9100 nM.

In the case of `C[C@@H](Nc1cc(C(=O)N2CCC(NC(=O)c3ccc(F)cc3)CC2)nc(-c2cnn3ccsc23)n1)C(C)(C)C` [Example 197, N-1-[6-[(2R)-3,3-dimethylbutan-2-yl]amino-2-(pyrazolo[5,1-b][1,3]thiazol-7-yl)pyrimidine-4-carbonyl]piperidin-4-yl-4-fluorobenzamide], the half-inhibitory concentration (IC50) in assay [1] came out at 120 nM; in assay [2] it was 3800 nM; in assay [3], 8200 nM.

`CCC(=O)N1CCC(Nc2cc(C(=O)N3CCC(NC(=O)OC)CC3)nc(-c3cnn4ccsc34)n2)CC1` [Example 198, Methyl (1-6-[(1-propanoylpiperidin-4-yl)amino]-2-(pyrazolo[5,1-b][1,3]thiazol-7-yl)pyrimidine-4-carbonylpiperidin-4-yl)carbamate]: the IC50 in assay [1] is 1500 nM; in assay [2], over 10000 nM; in assay [3], over 10000 nM.

`COC(=O)NC1CCN(C(=O)c2cc(NC3CCN(C(=O)CC#N)CC3)nc(-c3cnn4ccsc34)n2)CC1` [Example 199, Methyl (1-{[6-{[1-(cyanoacetyl)piperidin-4-yl]amino}-2-(pyrazolo[5,1-b][1,3]thiazol-7-yl)pyrimidin-4-yl]carbonyl}piperidin-4-yl)carbamate]: the half-inhibitory concentration (IC50) in assay [1] was 2800 nM; in assay [2] it was over 10000 nM; in assay [3] it was over 10000 nM.

For the compound `COC(=O)NC1CCN(C(=O)c2cc(NC3CCN(S(C)(=O)=O)CC3)nc(-c3cnn4ccsc34)n2)CC1` [Example 200, Methyl 1-[6-[1-(methanesulfonyl)piperidin-4-yl]amino-2-(pyrazolo[5,1-b][1,3]thiazol-7-yl)pyrimidine-4-carbonyl]piperidin-4-ylcarbamate], the IC50 in assay [1] is 2400 nM; in assay [2], over 10000 nM; in assay [3], over 10000 nM.

In the case of `COC(=O)NC1CCN(C(=O)c2cc(N[C@@H]3CCN(C(=O)CC#N)C3)nc(-c3cnn4ccsc34)n2)CC1` [Example 201, Methyl 1-[6-[(3R)-1-(cyanoacetyl)pyrrolidin-3-yl]amino-2-(pyrazolo[5,1-b][1,3]thiazol-7-yl)pyrimidine-4-carbonyl]piperidin-4-ylcarbamate], the IC50 is 120 nM in assay [1], over 10000 nM in assay [2] and over 10000 nM in assay [3].

With `CCC(=O)NC1CCN(C(=O)c2cc(N[C@@H]3CCN(C(=O)CC#N)C3)nc(-c3cnn4ccsc34)n2)CC1` [Example 202, N-1-[6-[(3R)-1-(cyanoacetyl)pyrrolidin-3-yl]amino-2-(pyrazolo[5,1-b][1,3]thiazol-7-yl)pyrimidine-4-carbonyl]piperidin-4-ylpropanamide], the IC50 was 300 nM in assay [1], over 10000 nM in assay [2] and over 10000 nM in assay [3].

Consider `CCOC(=O)NC1CCN(C(=O)c2cc(N[C@@H]3CCN(C(=O)CC#N)C3)nc(-c3cnn4ccsc34)n2)CC1` [Example 203, Ethyl 1-[6-[(3R)-1-(cyanoacetyl)pyrrolidin-3-yl]amino-2-(pyrazolo[5,1-b][1,3]thiazol-7-yl)pyrimidine-4-carbonyl]piperidin-4-ylcarbamate], for which the IC50 in assay [1] was 70 nM; in assay [2] it was over 10000 nM; in assay [3] it was over 10000 nM.

Turning to `N#CCC(=O)N1CC[C@H](Nc2cc(C(=O)N3CCC(NC(=O)C4CC4)CC3)nc(-c3cnn4ccsc34)n2)C1` [Example 204, N-1-[6-[(3S)-1-(cyanoacetyl)pyrrolidin-3-yl]amino-2-(pyrazolo[5,1-b][1,3]thiazol-7-yl)pyrimidine-4-carbonyl]piperidin-4-ylcyclopropanecarboxamide], the IC50 in assay [1] is 2700 nM; in assay [2], over 10000 nM; in assay [3] it was over 10000 nM.
